Here are results for eleven compounds from patent publication US8026269B2, “Isoindoline compounds and methods of making and using the same” (Celgene Corporation, priority 2004, dated 2011).

For orientation: melting point means the temperature, or range, at which the solid turns liquid.

In turn, `CCOc1cc([C@@H](CS(C)(=O)=O)N2Cc3cccc(NCC(C)C)c3C2=O)ccc1OC` [Example 5, (1S)-2-[1-(3-Ethoxy-4-methoxyphenyl)-2-methanesulfonyl-ethyl]-7-isobutylamino-2,3-dihydro-isoindol-1-one] registered a melting point of 122 to 124 °C.
`CCOc1cc([C@@H](CS(C)(=O)=O)N2C(=O)c3cccc(NC(=O)COC)c3C2=O)ccc1OC` [Example 3, (1S)—N-{2-[1-(3-ethoxy-4-methoxyphenyl)-2-methanesulfonyl-ethyl]-1,3-dioxo-2,3-dihydro-1H-isoindol-4-yl}-2-methoxy-acetamide] yielded a melting point of 151 to 153 °C.
On to `CCOc1cc([C@@H](CS(C)(=O)=O)N2Cc3cccc(NC(=O)N(C)C)c3C2=O)ccc1OC` [Example 16, (1S)-3-{2-[1-(3-Ethoxy-4-methoxy-phenyl)-2-methanesulfonyl-ethyl]-3-oxo-2,3-dihydro-1H-isoindol-4-yl}-1,1-dimethyl-urea], for which the melting point fell in the range of 170 to 172 °C.
For the compound `CCOc1cc([C@@H](CS(C)(=O)=O)N2Cc3cccc(NCC4CC4)c3C2=O)ccc1OC` [Example 4, (1S)-7-(Cyclopropylmethyl-amino)-2-[1-(3-ethoxy-4-methoxyphenyl)-2-methanesulfonyl-ethyl]-2,3-dihydro-isoindol-1-one], the melting point lay within 147 to 149 °C.
`CCOc1cc(C(CC#N)N2C(=O)c3ccc4ccccc4c3C2=O)ccc1OC` (centres unmarked) [Example 1, 3-(1,3-Dioxobenzo[e]isoindolin-2-yl)-3-(3-ethoxy-4-methoxyphenyl)propanenitrile] registered a melting point of 163 to 165 °C.
In the case of `CCOc1cc([C@@H](CS(C)(=O)=O)N2C(=O)c3cccc(NC(=O)c4ccco4)c3C2=O)ccc1OC` [Example 2, (1S)-Furan-2-carboxylic Acid {2-[1-(3-ethoxy-4-methoxyphenyl)-2-methanesulfonyl-ethyl]-1,3-dioxo-2,3-dihydro-1H-isoindol-4-yl}-amide] it was 184 to 186 °C; in that of `CCOc1cc([C@@H](CC(=O)N(C)C)N2Cc3cccc(NCC(C)(C)C)c3C2=O)ccc1OC` [Example 6, (3R)-3-[7-(2,2-Dimethyl-propylamino)-1-oxo-1,3-dihydro-isoindol-2-yl]-3-(3-ethoxy-4-methoxyphenyl)-N,N-dimethyl-propionamide], 111 to 113 °C.
In the case of `CCOc1cc(C(CC#N)N2C(=O)c3cccc(NC(N)=O)c3C2=O)ccc1OC` (centres unmarked) [Example 12], the melting point was in the range of 179 to 181.5 °C.
Consider `COc1ccc(C(CS(C)(=O)=O)N2C(=O)c3cccc(NC(C)=O)c3C2=O)cc1OCC1CC1` (centres unmarked) [Example 13, N-{2-[1-(3-Cyclopropylmethoxy-4-methoxy-phenyl)-2-methanesulfonyl-ethyl]-1,3-dioxo-2,3-dihydro-1H-isoindol-4-yl}-acetamide], for which the melting point was in the range of 102 to 104 °C.
Under `CCOc1cc([C@@H](CC(=O)N(C)C)N2Cc3cccc(NC(=O)N(C)C)c3C2=O)ccc1OC` [Example 15, (3R)-3-(7-(3,3-Dimethyl-ureido)-1-oxo-1,3-dihydro-isoindol-2-yl}-3-(3-ethoxy-4-methoxy-phenyl)-N,N-dimethyl-propionamide] stands 105 to 107 °C.
In the case of `CCOc1cc(C(CC#N)N2C(=O)c3ccc(NC(N)=O)cc3C2=O)ccc1OC` (centres unmarked) [Example 11] it was 163 to 165 °C.
